Test results as given in patent US11116778B2, “Prodrugs of ALOX-15 inhibitors and methods of using the same” (EMPIRICO INC., priority 2019, dated 2021).

Biological target: T1, 15-lipoxygenase (Oryctolagus cuniculus, UniProt P12530)
T1 construct: Animals were then euthanized and nasal mucosa was collected; tissue Covance; host or cells: nasal mucosa of NZW rabbits
T1 sequence (P12530 1-663): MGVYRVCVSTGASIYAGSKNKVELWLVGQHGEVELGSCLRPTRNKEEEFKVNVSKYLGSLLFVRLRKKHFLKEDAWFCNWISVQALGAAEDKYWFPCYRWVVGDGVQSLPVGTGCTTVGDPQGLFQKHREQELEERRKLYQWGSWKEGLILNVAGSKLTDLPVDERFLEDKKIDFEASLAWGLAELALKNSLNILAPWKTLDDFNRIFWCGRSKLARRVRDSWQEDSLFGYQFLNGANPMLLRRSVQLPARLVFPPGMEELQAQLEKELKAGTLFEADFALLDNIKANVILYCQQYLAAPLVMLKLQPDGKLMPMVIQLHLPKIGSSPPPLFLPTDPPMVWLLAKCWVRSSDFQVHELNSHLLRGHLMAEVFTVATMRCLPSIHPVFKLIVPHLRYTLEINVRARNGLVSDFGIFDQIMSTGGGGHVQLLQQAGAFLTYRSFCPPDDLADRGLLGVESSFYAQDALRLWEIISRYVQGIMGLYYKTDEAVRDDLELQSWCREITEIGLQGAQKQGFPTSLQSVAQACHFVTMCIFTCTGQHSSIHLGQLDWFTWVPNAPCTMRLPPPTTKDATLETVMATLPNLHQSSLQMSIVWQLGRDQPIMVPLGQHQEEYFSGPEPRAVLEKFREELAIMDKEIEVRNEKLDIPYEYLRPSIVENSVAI
Experiment: 15-HETE levels in rabbit nasal mucosa after nasal administration of compound 5 (IL4/IL13 inflammation model)
Assay type: in vivo
Conditions: rostral and caudal regions
Procedure: Six (6) female NZW rabbits were employed in this study. Rabbits were obtained from Covance (Denver Pa.). Rabbits were between approximately 10 and 12 months of age at the time of study start. At time point 0, all animals received 50 μL of solution containing rabbit IL4 (RND Systems/Biotechne) and human IL13 (PreproTech) at a concentration of 0.25 mg/mL each in 0.5×PBS containing 12.5 mg/mL BSA per nostril. This was administered intranasally via a venous catheter attached to a micropipette. The animal was positioned in a supine manner and the venous catheter inserted into the nostril. The volume was introduced into the nasal cavity and the same procedure was repeated with the other nostril.
At the 2, 4, and 6 hour time points, animals in Group 1 (n=3) received 0.2 mL of vehicle (0.9% saline) per nostril and the animals in Group 2 (n=3) received 0.2 mL of compound 5 (10 mM) in vehicle per nostril. […]
Nasal lavage and serum samples were analyzed for the levels of compound 3 and compound 5. […] Compound 3 was quantified using LC-MS/MS (QTrap5500, Applied Biosystems). […] Compound 5 was quantified using LC-MS/MS (QTrap5500, Applied Biosystems). […]

## O=C(Nc1ccc(F)cc1Cl)c1nn(COP(=O)(O)O)c(Cl)c1Cl [compound 5, (4,5-dichloro-3-((2-chloro-4-fluorophenyl)carbamoyl)-1H-pyrazol-1-yl)methyl dihydrogen phosphate]
rabbits, IL4/IL13 intranasal, compound 5 10 mM 0.2 mL per nostril at 2, 4, 6 hours
  mean 15-HETE levels in nasal mucosa versus vehicle (FIG. 9): lower
Total after NaOH hydrolysis minus free 15-HETE
  mean esterified 15-HETE levels in nasal mucosa versus vehicle (FIG. 10): lower
